Data from patent US20250134844A1, “THERAPEUTIC USE OF PLEUROMUTILINS” (Nabriva Therapeutics GmbH, priority 2022, published 2025).
Values after ≈ are worked out from the molar mass of the structure shown. Read-outs that look alike come from different tables or passages of the source.

Columns and labels:
[1] = system: Borreliella spp.; test: MIC by broth microdilution against Borreliella isolates; type: cell-based; details: range over 6 isolates (5 B. burgdorferi, 1 B. garinii)
Method: Minimal inhibitory concentrations (MIC) were determined against five (n=5) Borreliella burgdorferi isolates (ATCC 51990, 55131, 35211, 35210, 53899) and one (n=1) Borreliella garinii isolate (ATCC 51991) by broth microdilution technique (Dever, L. L., Jorgensen, J. H., Barbour, A. G. In vitro antimicrobial susceptibility testing of Boreliella burgdorferi: a microdilution MIC method and time-kill studies. J Clin Microbiol. 30(10), 2692-2697. (1992) doi: 10.1128/jcm.30.10.2692-2697.1992; Feng, J., Wang, T., Shi, W., et al. Identification of novel activity against Boreliella burgdorferi persisters using an FDA approved drug library. Emerg Microb Infect 3, e49 (2014) doi: 10.1038/emi.2014.53). The general procedures for broth microdilution were done according to the CLSI guidelines M7 and M100-S31 (CLSI. (2018) Methods for dilution antimicrobial susceptibility tests for bacteria that grow aerobically; Eleventh edition. M07.; CLSI. (2021) Performance Standards for Antimicrobial Susceptibility Testing; Thirty-first Edition. M100-S31).
Briefly, Borreliella spp. were grown at 36° C. under microaerophilic conditions in BSK II medium until the logarithmic or stationary growth phase was reached. The growth phase was determined by semiquantitative measurement of active and dormant cells by fluorescence microscopy of cells stained with the fluorescent dyes SYBR Green I and propidium iodide. An inoculum of 10^5−10^6 spirochetes/mL was used to inoculate broth microdilution plates containing serially 2-fold diluted test compounds.

[2] = system: T. pallidum cells (Chicago strain); test: Rabbit model of intradermal Treponema pallidum infection (syphilis); type: in vivo; details: for lesion progression past the initial state of mild induration: 40 days observation; for T. pallidum mRNA (tp0574 message normalized to HPRT) in lesion biopsies: day 3 post-treatment initiation; for T. pallidum cells in lesion aspirates by DFM: since day 3 post-treatment initiation
Method: The preclinical study to test Lefamulin against T. pallidum was conducted in analogy to an investigation of the antibiotic compound linezolid (Haynes, A. M., Giacani, L., Vall Mayans, M., et al. Efficacy of linezolid on Treponema pallidum, the syphilis agent: A preclinical study. eBioMedicine 65, 103281 (2021). doi: 10.1016/j.ebiom.2021.103281).
In the syphilis infection model, each animal was infected intradermally (ID) with 10^6 freshly harvested, viable and infectious T. pallidum cells (Chicago strain) per site of infection on 10 sites on their shaved backs to induce appearance of primary syphilis lesions. Treponemal viability prior to ID infection was assessed by dark field microscopy (DFM). A dose of infectious treponemes (10^6/site of infection) induces the appearance of an erythematous lesion at the inoculation site within ˜5 days post-inoculation. Overall, the arch of lesion progression from the erythematous stage to the indurated, ulcerated, and healed stages encompasses approximately 4 weeks.
Herein, three groups of three rabbits were infected. Three animals were treated orally with 70 mg/kg Lefamulin every 12 h for 3 days (day 7 to day 10 post-infection). As positive control group, another three animals were treated with Benzathine penicillin G (BPG) as single intramuscular (IM) injection (300,000 units; equivalent w/w to 4.8 million units for humans). One group (n=3) served as untreated control. The cutaneous lesions were monitored macroscopically for clinical development, documented by photography on regular basis and measured for their diameter every day for a period of 40 days.
Treponemal burden within these lesions was assessed by taking needle aspirates from the lesions and analyzing the aspirates for pathogen cell count using DFM as well as quantification of treponemal DNA extracted from the aspirates at day 3, 8, 12, and 16 Additionally, mRNA extracted from lesion biopsies obtained post-treatment initiation was also quantified as a surrogate of viability. The gene copy number of the T. pallidum tp0574 gene was quantified by qPCR. Additionally, the tp0574 gene message was normalized to the message of the rabbit housekeeping gene HPRT to evaluate the burden of viable T. pallidum cells within lesion biopsies.

[3] = system: T. pallidum; test: Rabbit infectivity test (RIT) with popliteal lymph nodes; type: in vivo; details: for orchitis or seroconversion (VDRL, TPPA) of RIT rabbits: 3-months observation period, lymph nodes from treated test rabbits; for seroconversion in FTA-ABS test: RIT rabbits, control animals 3+ reactivity or higher
Description: The test rabbits from Example 3 were used for a subsequent study in a RIT, wherein samples from the popliteal lymph nodes were transferred to new (naïve) rabbits, which were subsequently analyzed for disease symptoms and tested serologically (Haynes, A. M., Giacani, L., Vall Mayans, M., et al. Efficacy of linezolid on Treponema pallidum, the syphilis agent: A preclinical study. eBioMedicine 65, 103281 (2021). Doi: 10.1016/j.ebiom.2021.103281).
Following euthanasia, popliteal lymph nodes (LN) from all the rabbits in the Lefamulin, BPG, and control groups were harvested. Lymph nodes from each rabbit were pooled and homogenized in a solution containing equal amounts of sterile saline and serum from an uninfected rabbit. One milliliter of homogenate from each test rabbit was then inoculated into the left testicle of a naïve rabbit to perform the RIT. For the rabbit, which died at day 3 post-treatment initiation, lymph nodes were harvested and transferred to a RIT rabbit within 1 hour after the animal's death.
Inoculated animals were checked for orchitis twice weekly. Serum was collected monthly for three months and analyzed with two different serological tests, i.e. VDRL (Venereal Disease Research Laboratory; Becton-Dickinson, Franklin Lanes, NJ) and TPPA (Treponema pallidum Particle Agglutination; Fujirebio, Malvern, PA). Also an FTA-ABS test (Fluorescent Treponemal Antibody-Absorption; Trinity Biotech, Jamestown, NY) was performed.

[4] = system: T. pallidum Chicago strain; test: In vitro susceptibility in co-culture with rabbit Sf1Ep cells, qPCR of tp0574 gene; type: cell-based, Treponema pallidum
Method: (§1) The in vitro susceptibility determination essentially followed the protocol described by Edmondson et al. (Edmondson, D. G., Hu, B., Norris, S. J. Long-Term In Vitro Culture of the Syphilis Spirochete Treponema pallidum subsp. pallidum. mBio 9(3) e01153-18. (2018). doi: 10.1128/mBio.01153-18).
(§2) Briefly, 3×10^3 rabbit Sf1Ep cells seeded in 96-well microtiter plates in 150 μl of culture media, were inoculated with the T. pallidum strains Chicago and SS14 at an inoculum of 3×10^3 (counted using dark field microscopy) in TpCM-2 medium that was equilibrated overnight at 34° C. in a microaerophilic environment consisting of 1.5% O2, 3.5% CO2 and 95% N2 supplied as a tri-gas mix. Lefamulin and penicillin G were added from 100-fold concentrated stocks in water to achieve the final test concentrations of 5, 2.5, 0.5, 0.1, 0.02. 0.01. 0.005, and 0.0025 μg/ml for Lefamulin and 60 ng/ml for penicillin G. Then the culture plates were incubated at 34° C. in a tri-gas incubator. Cells were then lysed and the DNA extracted using a Quick DNA-96 kit followed by the quantification of the treponemes by quantitative real-time PCR in triplicate targeting the tp0574 gene (Giacani L, Molini B, Godornes C, Barrett L, Van Voorhis WC, Centurion-Lara A, et al. Quantitative analysis of tpr gene expression in Treponema pallidum isolates: differences among isolates and correlation with T-cell responsiveness in experimental syphilis. Infect Immun. 75(1), 104-12 (2007). doi: 10.1128/IAI.01124-06).

[5] = system: T. pallidum SS14 strain; test: as above; type: cell-based, Treponema pallidum
Method: as §1, §2

[6] = 192 h, stationary growth phase cultures, read after 8 days, read-out: MIC (μg/mL) for Stationary Growth Phase Culture (n = 6)
[7] = logarithmic growth phase cultures, read after 5 or 6 days, read-out: MIC (μg/mL) for Logarithmic Growth Phase Culture (n = 6)

SMILES: CC[C@H]1OC(=O)[C@H](C)[C@@H](O[C@H]2C[C@@](C)(OC)[C@@H](O)[C@H](C)O2)[C@H](C)[C@@H](O[C@@H]2O[C@H](C)C[C@H](N(C)C)[C@H]2O)[C@](C)(O)C[C@@H](C)C(=O)[C@H](C)[C@@H](O)[C@]1(C)O [Erythromycin]
- MIC [1, 6]: 0.001 to 0.004 µg/mL (≈ 0.00136 to 0.00545 µM)
- MIC [1, 7]: 0.002 to 0.016 µg/mL (≈ 0.00273 to 0.0218 µM)

SMILES: CC[C@H]1OC(=O)[C@H](C)[C@@H](O[C@H]2C[C@@](C)(OC)[C@@H](O)[C@H](C)O2)[C@H](C)[C@@H](O[C@@H]2O[C@H](C)C[C@H](N(C)C)[C@H]2O)[C@](C)(O)C[C@@H](C)CN(C)[C@H](C)[C@@H](O)[C@]1(C)O [Azithromycin]
- MIC [1, 6]: 0.001 to 0.004 µg/mL (≈ 0.00134 to 0.00534 µM)
- MIC [1, 7]: 0.001 to 0.004 µg/mL (≈ 0.00134 to 0.00534 µM)

SMILES: CO/N=C(\C(=O)N[C@@H]1C(=O)N2C(C(=O)O)=C(COC(N)=O)CS[C@H]12)c1ccco1 [Cefuroxime]
- MIC [1, 6]: 0.016 to 0.25 µg/mL (≈ 0.0377 to 0.589 µM)
- MIC [1, 7]: 0.016 to 0.25 µg/mL (≈ 0.0377 to 0.589 µM)

SMILES: CC1(C)S[C@@H]2[C@H](NC(=O)Cc3ccccc3)C(=O)N2[C@H]1C(=O)O.CC1(C)S[C@@H]2[C@H](NC(=O)Cc3ccccc3)C(=O)N2[C@H]1C(=O)O.c1ccc(CNCCNCc2ccccc2)cc1 [BPG, Benzathine penicillin G]
- lesion progression past the initial state of mild induration [2]: None of the lesions in these two groups progressed past the initial state of mild induration
- T. pallidum mRNA (tp0574 message normalized to HPRT) in lesion biopsies [2]: absent
- measured sites resolved ([2]; day 9 post-BPG administration): 95%
- measured sites resolved ([2]; day 12 post-treatment): 100%
- T. pallidum cells in lesion aspirates by DFM [2]: no treponemal bacteria could be found
- orchitis or seroconversion (VDRL, TPPA) of RIT rabbits [3]: None of the animals developed orchitis or seroconverted
- seroconversion in FTA-ABS test [3]: none of the BGP or Lefamulin treated animals seroconverted

SMILES: C=C[C@]1(C)C[C@@H](OC(=O)CS[C@@H]2CC[C@@H](N)C[C@H]2O)[C@]2(C)[C@H](C)CC[C@]3(CCC(=O)[C@H]32)[C@@H](C)[C@@H]1O [Lefamulin, 14-O-{[(1R, 2R, 4R)-4-amino-2-hydroxy-cyclohexylsulfanyl]-acetyl}-mutilin]
- MIC [1, 6]: 0.001 to 0.008 µg/mL (≈ 0.00197 to 0.0158 µM)
- MIC [1, 7]: 0.001 to 0.008 µg/mL (≈ 0.00197 to 0.0158 µM)
- mean copy number of tp0574 gene ([4]; Chicago strain, at ≥10 ng/ml Lefamulin, day 7, untreated control 13,052 copies/μL): 324-403 copies/μL
- MIC ([4]; Treponema pallidum, 168 h, T. pallidum Chicago strain, day 7, read-out: minimal inhibitory concentration (MIC)): ≥ 0.01 µg/mL
- mean copy number of tp0574 gene ([5]; SS14 strain, at ≥10 ng/mL Lefamulin, day 7, untreated control 894 copies/μL): 33-124 copies/μL
- inhibiting Lefamulin concentration ([5]; T. pallidum SS14 strain, inhibited at 10-20 ng/mL or higher): 10 to 20 ng/mL
- death in treated group ([2]; 70 mg/kg orally every 12 h, day 3 of treatment, most likely inhalation of Lefamulin caused by reflux): one rabbit died
- lesion progression past the initial state of mild induration [2]: None of the lesions in these two groups progressed past the initial state of mild induration
- T. pallidum mRNA (tp0574 message normalized to HPRT) in lesion biopsies [2]: absent
- lesions still measurable ([2]; day 9 post-treatment initiation): 14%
- lesion diameter compared to the untreated controls ([2]; day 10 post-infection, end of treatment, p<0.05): significantly lower
- day post-treatment initiation by which no induration could be measured at any site ([2]; post-treatment initiation): ≤ 13 days
- T. pallidum cells in lesion aspirates by DFM [2]: no treponemal bacteria could be found
- orchitis or seroconversion (VDRL, TPPA) of RIT rabbits [3]: None of the animals developed orchitis or seroconverted
- seroconversion in FTA-ABS test [3]: none of the BGP or Lefamulin treated animals seroconverted

SMILES: C[C@H]1c2cccc(O)c2C(=O)C2=C(O)[C@]3(O)C(=O)C(C(N)=O)=C(O)[C@@H](N(C)C)[C@@H]3[C@@H](O)[C@@H]21 [Doxycycline]
- MIC [1, 6]: 0.03 to 0.5 µg/mL (≈ 0.0675 to 1.13 µM)
- MIC [1, 7]: 0.03 to 0.5 µg/mL (≈ 0.0675 to 1.13 µM)

SMILES: CC1(C)S[C@@H]2[C@H](NC(=O)Cc3ccccc3)C(=O)N2[C@H]1C(=O)O [penicillin G]
- copy number of tp0574 gene ([4]; Chicago strain, penicillin G 60 ng/mL): 247 copies/μL
- copy number of tp0574 gene ([5]; SS14 strain, penicillin G 60 ng/mL): 91 copies/μL

SMILES: C=C[C@]1(C)C[C@@H](OC(=O)CO)[C@]2(C)[C@H](C)CC[C@]3(CCC(=O)[C@H]32)[C@@H](C)[C@@H]1O [Pleuromutilin]
- MIC [1, 6]: 0.12 to 2 µg/mL (≈ 0.317 to 5.28 µM)
- MIC [1, 7]: 0.12 to 1 µg/mL (≈ 0.317 to 2.64 µM)

SMILES: C=C[C@]1(C)C[C@@H](OC(=O)CSCCN(CC)CC)[C@]2(C)[C@H](C)CC[C@]3(CCC(=O)[C@H]32)[C@@H](C)[C@@H]1O [Tiamulin]
- MIC [1, 6]: 0.03 to 0.25 µg/mL (≈ 0.0608 to 0.506 µM)
- MIC [1, 7]: 0.03 to 0.5 µg/mL (≈ 0.0608 to 1.01 µM)

SMILES: CC1(C)S[C@@H]2[C@H](NC(=O)[C@H](N)c3ccc(O)cc3)C(=O)N2[C@H]1C(=O)O [Amoxicillin]
- MIC [1, 6]: 0.03 to 0.12 µg/mL (≈ 0.0821 to 0.328 µM)
- MIC [1, 7]: 0.03 to 0.12 µg/mL (≈ 0.0821 to 0.328 µM)

SMILES: CO/N=C(\C(=O)N[C@@H]1C(=O)N2C(C(=O)O)=C(CSc3nc(=O)c(=O)[nH]n3C)CS[C@H]12)c1csc(N)n1 [Ceftriaxone]
- MIC [1, 6]: 0.004 to 0.03 µg/mL (≈ 0.00721 to 0.0541 µM)
- MIC [1, 7]: 0.004 to 0.016 µg/mL (≈ 0.00721 to 0.0289 µM)

SMILES: C[C@H]1COc2c(N3CCN(C)CC3)c(F)cc3c(=O)c(C(=O)O)cn1c23 [Levofloxacin]
- MIC [1, 6]: 2 to 8 µg/mL (≈ 5.53 to 22.1 µM)
- MIC [1, 7]: 2 to 4 µg/mL (≈ 5.53 to 11.1 µM)
